Like-named read-outs stand apart in the source and are kept apart here.
Tested on: Phytophthora infestans
Format: in vivo
Conditions: for E, Expected % disease control / O, Observed % disease control / O-E: A76 potato; for performance in combination with A76 (indicative of synergy): in combination with A76 potato, observed vs expected disease control
[1] = 3 ppm, Jan. 25, 2001, FB 2001/3001
[2] = 3 ppm, Jan. 26, 2001, FB 2001/3001
[3] = 3 ppm, Jan. 27, 2001, FB 2001/3001
[4] = 3 ppm, Jan. 28, 2001, FB 2001/3001
[5] = 3 ppm, Jan. 29, 2001, FB 2001/3001
[6] = 3 ppm, Oct. 13, 2000, FB 2000/3024
[7] = 3 ppm, Oct. 16, 2000, FB 2000/3024
[8] = 3 ppm, Oct. 18, 2000, FB 2000/3024
[9] = 3 ppm, Oct. 20, 2000, FB 2000/3024
[10] = 10 ppm, Jan. 25, 2001, FB 2001/3001
[11] = 10 ppm, Jan. 26, 2001, FB 2001/3001
[12] = 10 ppm, Jan. 27, 2001, FB 2001/3001
[13] = 10 ppm, Jan. 28, 2001, FB 2001/3001
[14] = 10 ppm, Jan. 29, 2001, FB 2001/3001
[15] = 10 ppm, Oct. 13, 2000, FB 2000/3024
[16] = 10 ppm, Oct. 16, 2000, FB 2000/3024
[17] = 10 ppm, Oct. 18, 2000, FB 2000/3024
[18] = 10 ppm, Oct. 20, 2000, FB 2000/3024
[19] = 30 ppm, Oct. 13, 2000, FB 2000/3024
[20] = 30 ppm, Oct. 16, 2000, FB 2000/3024
[21] = 30 ppm, Oct. 18, 2000, FB 2000/3024
[22] = 30 ppm, Oct. 20, 2000, FB 2000/3024

N#Cc1c(Cl)c(Cl)c(Cl)c(C#N)c1Cl [Chlorothalonil, chlorothalonil]
E, Expected % disease control [1]: 98.3%
O, Observed % disease control [1]: 91.7%
O-E [1]: −1.6
E, Expected % disease control [2]: 96.2%
O, Observed % disease control [2]: 94.9%
O-E [2]: −1.3
E, Expected % disease control [3]: 94.5%
O, Observed % disease control [3]: 92.7%
O-E [3]: −1.7
E, Expected % disease control [4]: 83.2%
O, Observed % disease control [4]: 86.9%
O-E [4]: 3.6
E, Expected % disease control [5]: 67.2%
O, Observed % disease control [5]: 77.9%
O-E [5]: 10.7
E, Expected % disease control [6]: 73.73%
O, Observed % disease control [6]: 83.1%
O-E [6]: 9.37
E, Expected % disease control [7]: 78.12%
O, Observed % disease control [7]: 86.09%
O-E [7]: 7.97
E, Expected % disease control [8]: 56.09%
O, Observed % disease control [8]: 76.41%
O-E [8]: 20.32
E, Expected % disease control [9]: 39.95%
O, Observed % disease control [9]: 75.7%
O-E [9]: 35.75
E, Expected % disease control [10]: 97.0%
O, Observed % disease control [10]: 97.2%
O-E [10]: 0.2
E, Expected % disease control [11]: 98.2%
O, Observed % disease control [11]: 97.4%
O-E [11]: −0.8
E, Expected % disease control [12]: 97.8%
O, Observed % disease control [12]: 97.9%
O-E [12]: 0.1
E, Expected % disease control [13]: 93.8%
O, Observed % disease control [13]: 99.0%
O-E [13]: 5.2
E, Expected % disease control [14]: 90.1%
O, Observed % disease control [14]: 97.0%
O-E [14]: 6.9
E, Expected % disease control [15]: 92.49%
O, Observed % disease control [15]: 88.73%
O-E [15]: −3.76
E, Expected % disease control [16]: 94.65%
O, Observed % disease control [16]: 95.36%
O-E [16]: 0.71
E, Expected % disease control [17]: 91.33%
O, Observed % disease control [17]: 87.77%
O-E [17]: −3.56
E, Expected % disease control [18]: 84.98%
O, Observed % disease control [18]: 79.74%
O-E [18]: −5.24
performance in combination with A76 (indicative of synergy): better than expected

COCC(=O)N(c1c(C)cccc1C)C(C)C(=O)OC (centres unmarked) [Metalaxyl, metalaxyl]
E, Expected % disease control [1]: 88.8%
O, Observed % disease control [1]: 91.7%
O-E [1]: 2.8
E, Expected % disease control [2]: 92.6%
O, Observed % disease control [2]: 94.9%
O-E [2]: 2.3
E, Expected % disease control [3]: 87.2%
O, Observed % disease control [3]: 93.8%
O-E [3]: 6.5
E, Expected % disease control [4]: 57.9%
O, Observed % disease control [4]: 91.9%
O-E [4]: 34.1
E, Expected % disease control [5]: 38.1%
O, Observed % disease control [5]: 89.9%
O-E [5]: 51.8
E, Expected % disease control [6]: 79.35%
O, Observed % disease control [6]: 94.37%
O-E [6]: 15.02
E, Expected % disease control [7]: 71.31%
O, Observed % disease control [7]: 97.68%
O-E [7]: 26.37
E, Expected % disease control [8]: 58.26%
O, Observed % disease control [8]: 97.95%
O-E [8]: 39.69
E, Expected % disease control [9]: 42.01%
O, Observed % disease control [9]: 95.95%
O-E [9]: 53.94
E, Expected % disease control [10]: 98.3%
O, Observed % disease control [10]: 97.2%
O-E [10]: 3.9
E, Expected % disease control [11]: 96.2%
O, Observed % disease control [11]: 98.7%
O-E [11]: 2.5
E, Expected % disease control [12]: 94.2%
O, Observed % disease control [12]: 99.0%
O-E [12]: 4.8
E, Expected % disease control [13]: 80.4%
O, Observed % disease control [13]: 98.0%
O-E [13]: 17.6
E, Expected % disease control [14]: 55.4%
O, Observed % disease control [14]: 97.0%
O-E [14]: 41.6
E, Expected % disease control [15]: 88.74%
O, Observed % disease control [15]: 94.37%
O-E [15]: 5.63
E, Expected % disease control [16]: 87.84%
O, Observed % disease control [16]: 96.6%
O-E [16]: 8.76
E, Expected % disease control [17]: 75.07%
O, Observed % disease control [17]: 97.95%
O-E [17]: 22.88
E, Expected % disease control [18]: 48.83%
O, Observed % disease control [18]: 96.96%
O-E [18]: 48.13
E, Expected % disease control [19]: 96.25%
O, Observed % disease control [19]: 100%
O-E [19]: 3.75
E, Expected % disease control [20]: 97.08%
O, Observed % disease control [20]: 100%
O-E [20]: 2.92
E, Expected % disease control [21]: 94.58%
O, Observed % disease control [21]: 97.95%
O-E [21]: 3.37
E, Expected % disease control [22]: 89.77%
O, Observed % disease control [22]: 97.97%
O-E [22]: 8.2
performance in combination with A76 (indicative of synergy): better than expected
